Test results: patent EP4635976A1, “CONSTANT UNI-TABS” (Medigene Immunotherapies GmbH, priority 2024, dated 2025)
Marks after values point to notes of the source that are not given here.

Columns and labels:
Test in all cases: Peptide mismatched library: peptide-loaded T2 cells co-cultured with TCR-transduced CD8+ T cells, IFN-γ-ELISA
Type in all cases: cell-based
[1] = test system: WT NY-ESO_PD1-41 BB TCR ("SWAT"); settings: for IFN-γ [pg/ml production] MIT 045 SWAT: donor MIT045; for IFN-γ [pg/ml production] MIT 045 SWAT / IFN-γ [pg/ml production] MIT038 SWAT: CD8^+ T cells transduced with WT NY-ESO_PD1-41 BB TCR (SWAT), mismatch peptide loaded on T2 cells, IFNg-ELISA; for IFN-γ [pg/ml production] MIT038 SWAT: donor MIT038
Source text: (§1) The aim was to further compare the WT NY-ESO-1 with two UNI-TABS NY-ESO-TCRs (Position A199 in loop 1 and A245 in loop 2) in combination with PD1_41 BB regarding allogeneic HLA cross-recognition and HLA fine typing.
(§2) To test a peptide mismatched library, 336 different mismatched peptides, differing from 1-4 amino acids from the wild-type peptide recognized by the WT TCR were loaded on T2 cells and co-cultured with CD8^+ T cell transduced with either wt NY-ESO_PD1-41 BB TCR, NY-ESO-UniTABS-A199_PD1-41 BB TCR or NY-ESO-UniTABS-A245_PD1-41 BB TCR. The culture supernatant was collected, and an IFN-γ-ELISA performed.
(§3) The sequences and the numbers of the respective mismatch peptides are listed. The cells contain the values of IFN-γ [pg/ml production]. BetaA199: UniTAB epitope set forth in SEQ ID NO: 47 inserted in loop1 at position A199 flanked by GSG linker sequences, BetaA245: UniTAB epitope set forth in SEQ ID NO: 47 inserted in loop 2 at position A245 flanked by GSG linker sequences. Table 2: Mismatched peptides recognized by NY-ESO WT and NY-ESO variants

[2] = test system: NY-ESO-A199_PD1-41 BB TCR (UniTAB1); settings: CD8^+ T cells transduced with NY-ESO-A199_PD1-41 BB TCR (UniTAB1), mismatch peptide loaded on T2 cells, IFNg-ELISA; for IFN-γ [pg/ml production] MIT038 UniTABs-A199: donor MIT038
Source text: as §1, §2, §3

[3] = test system: NY-ESO-A245_PD1-41 BB TCR (UniTAB2); settings: donor MIT045; CD8^+ T cells transduced with NY-ESO-A245_PD1-41 BB TCR (UniTAB2); mismatch peptide loaded on T2 cells; IFNg-ELISA
Source text: as §1, §2, §3

Row | Sequence | recognition of mismatched peptide (IFN-γ response) ([1]; WT TCR-PD1-41BB transduced T cells, two donors) | IFN-γ [pg/ml production] MIT 045 SWAT [1] | IFN-γ [pg/ml production] MIT038 UniTABs-A199 [2] | IFN-γ [pg/ml production] MIT 045 UniTABs-A199 ([2]; donor MIT045) | IFN-γ [pg/ml production] MIT 045 UniTABs-A245 [3] | IFN-γ [pg/ml production] MIT038 SWAT [1]
1 | ICLQWITQC [compound 8] | only recognized by WT TCR transduced T cells of one donor | 24.7**** pg/ml |  |  |  | 
2 | NLLFWICGC [compound 221] |  | 100.6* pg/ml | 900.2* pg/ml | 889.3* pg/ml | 0.0* pg/ml | 788.9* pg/ml
3 | SLLCYIKHC [compound 239] |  | 32.1** pg/ml | 312.2** pg/ml |  |  | 228.6** pg/ml
